# Values of other authors, collected in patent publication US9693971B2, “Compositions for alleviating gastrointestinal tract disorders or associated systemic disorders in ruminants and camelids” (FREIE UNIVERSITÄT BERLIN, priority 2012, dated 2017).
# Legend:
# Conditions in all cases: cited from earlier work
# TRPV4 = TRPV4 (Homo sapiens, UniProt Q9HBA0)
# TRPA1 = TRPA1 (Homo sapiens, UniProt O75762)
# TRPV2 = target: T1, TRPV2 (Homo sapiens, UniProt Q9Y5S1)
# T1 sequence (Q9Y5S1 1-764): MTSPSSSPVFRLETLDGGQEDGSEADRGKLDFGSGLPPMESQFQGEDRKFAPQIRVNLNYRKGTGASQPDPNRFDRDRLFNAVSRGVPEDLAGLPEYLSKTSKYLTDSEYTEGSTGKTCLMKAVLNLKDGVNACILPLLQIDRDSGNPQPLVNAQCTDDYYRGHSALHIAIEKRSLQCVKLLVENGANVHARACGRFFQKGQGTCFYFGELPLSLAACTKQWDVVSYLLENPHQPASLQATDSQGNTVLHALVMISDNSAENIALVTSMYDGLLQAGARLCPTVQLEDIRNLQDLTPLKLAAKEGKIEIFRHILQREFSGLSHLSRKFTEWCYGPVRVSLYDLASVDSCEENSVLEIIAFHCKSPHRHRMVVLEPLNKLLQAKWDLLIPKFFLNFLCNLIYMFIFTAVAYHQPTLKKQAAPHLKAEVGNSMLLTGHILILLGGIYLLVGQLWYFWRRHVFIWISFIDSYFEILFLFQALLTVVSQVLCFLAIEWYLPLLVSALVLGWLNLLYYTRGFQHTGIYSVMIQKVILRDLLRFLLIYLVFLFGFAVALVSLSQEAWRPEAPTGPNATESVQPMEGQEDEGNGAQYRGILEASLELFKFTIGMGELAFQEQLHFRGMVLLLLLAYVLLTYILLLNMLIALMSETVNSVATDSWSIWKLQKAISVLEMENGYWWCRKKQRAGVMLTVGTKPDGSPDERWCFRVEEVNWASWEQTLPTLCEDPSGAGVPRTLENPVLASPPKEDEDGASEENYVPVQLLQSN
# TRPA1, sequence (O75762 whole entry, species assumed): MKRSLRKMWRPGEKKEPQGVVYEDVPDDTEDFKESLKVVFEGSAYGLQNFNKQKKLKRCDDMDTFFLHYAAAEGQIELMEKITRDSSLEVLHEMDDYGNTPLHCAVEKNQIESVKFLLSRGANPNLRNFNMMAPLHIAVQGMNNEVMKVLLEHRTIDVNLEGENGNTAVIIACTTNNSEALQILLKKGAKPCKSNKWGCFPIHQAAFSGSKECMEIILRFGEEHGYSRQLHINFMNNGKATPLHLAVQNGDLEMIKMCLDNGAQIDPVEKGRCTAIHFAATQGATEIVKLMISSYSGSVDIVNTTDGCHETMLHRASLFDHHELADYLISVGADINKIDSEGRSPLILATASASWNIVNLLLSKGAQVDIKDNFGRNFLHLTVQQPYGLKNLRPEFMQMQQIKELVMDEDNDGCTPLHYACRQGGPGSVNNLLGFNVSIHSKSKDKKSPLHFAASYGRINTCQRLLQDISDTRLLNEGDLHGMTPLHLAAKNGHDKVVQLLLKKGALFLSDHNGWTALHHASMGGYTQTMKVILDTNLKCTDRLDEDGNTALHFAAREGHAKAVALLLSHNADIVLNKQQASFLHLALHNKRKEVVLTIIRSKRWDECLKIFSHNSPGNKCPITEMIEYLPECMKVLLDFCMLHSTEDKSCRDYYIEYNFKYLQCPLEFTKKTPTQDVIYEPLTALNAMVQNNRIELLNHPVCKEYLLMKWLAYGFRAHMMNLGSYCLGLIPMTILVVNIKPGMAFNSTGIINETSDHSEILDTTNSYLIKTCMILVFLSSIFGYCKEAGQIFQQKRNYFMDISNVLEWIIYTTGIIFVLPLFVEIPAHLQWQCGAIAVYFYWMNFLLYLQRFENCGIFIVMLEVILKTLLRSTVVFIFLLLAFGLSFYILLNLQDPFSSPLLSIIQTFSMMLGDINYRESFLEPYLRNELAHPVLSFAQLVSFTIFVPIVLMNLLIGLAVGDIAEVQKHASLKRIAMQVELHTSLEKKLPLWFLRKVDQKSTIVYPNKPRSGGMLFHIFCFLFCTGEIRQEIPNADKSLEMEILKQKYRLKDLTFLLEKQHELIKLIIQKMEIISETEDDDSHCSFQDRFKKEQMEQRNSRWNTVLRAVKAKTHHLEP
# TRPV4, sequence (Q9HBA0 whole entry, species assumed): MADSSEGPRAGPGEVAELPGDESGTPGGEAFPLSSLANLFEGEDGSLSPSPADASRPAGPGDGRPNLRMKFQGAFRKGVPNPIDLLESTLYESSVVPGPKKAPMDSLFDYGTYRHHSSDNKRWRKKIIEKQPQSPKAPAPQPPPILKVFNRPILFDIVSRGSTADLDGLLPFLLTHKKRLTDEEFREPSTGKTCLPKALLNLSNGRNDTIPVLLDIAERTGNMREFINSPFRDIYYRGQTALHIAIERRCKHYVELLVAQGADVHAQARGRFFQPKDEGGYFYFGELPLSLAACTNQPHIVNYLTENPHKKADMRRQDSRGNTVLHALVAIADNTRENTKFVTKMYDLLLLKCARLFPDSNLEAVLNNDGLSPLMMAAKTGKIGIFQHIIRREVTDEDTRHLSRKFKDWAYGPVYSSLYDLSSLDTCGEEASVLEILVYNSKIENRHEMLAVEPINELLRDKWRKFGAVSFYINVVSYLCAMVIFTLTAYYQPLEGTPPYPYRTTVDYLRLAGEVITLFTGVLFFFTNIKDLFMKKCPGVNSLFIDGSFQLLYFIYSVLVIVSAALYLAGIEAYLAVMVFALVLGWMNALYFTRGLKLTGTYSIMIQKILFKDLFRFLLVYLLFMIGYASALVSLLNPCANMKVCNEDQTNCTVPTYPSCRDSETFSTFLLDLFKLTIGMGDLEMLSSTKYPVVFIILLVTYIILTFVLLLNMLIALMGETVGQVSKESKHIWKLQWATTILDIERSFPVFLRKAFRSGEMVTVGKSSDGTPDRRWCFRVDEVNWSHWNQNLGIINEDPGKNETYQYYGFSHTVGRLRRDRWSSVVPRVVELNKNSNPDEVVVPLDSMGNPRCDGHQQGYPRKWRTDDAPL
SMILES,Effect on TRPV4 (TRPV4),Effect on TRPA1 (TRPA1),Effect on TRPV2 (TRPV2)
C=C1CC[C@@H]2[C@](C)(CO)[C@H](O)CC[C@@]2(C)[C@@H]1/C=C/C1=CC(C(C[C@@H]2C(=C)CC[C@@H]3[C@](C)(CO)[C@H](O)CC[C@]32C)C2=CCOC2=O)OC1=O (stereo partly drawn) [Bisandrographolide A],Agonist,,
"CCCCCc1cc(O)c2c(c1)OC(C)(C)[C@@H]1CCC(C)=C[C@@H]21 [Tetrahydrocannabinol, tetrahydrocannabinol]",,Agonist,Agonist
